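96-well plates; 48 h exposure; 5 concentrations. Endpoints by linear interpolation between flanking doses. Not reached: highest tested concentration assigned. Here, GI50 denotes the concentration required for 50% inhibition of growth.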 Calls of active or inactive are those of the source. No stated cut-off is given here; in the data, active = GI50 up to about 1.1 µM and inactive = higher. Square brackets hold non-standard residues; d marks the D form. Peptide text beside a SMILES is read from it. pGlu = O=C1CC[C@@H](C(=O)O)N1; Thz = O=C(O)[C@@H]1CSCN1
What was measured:
Test in all cases: NCI-60 cell line screen, 48 h
COLO 205 = system: COLO 205
OVCAR-8 = system: OVCAR-8
NCI/ADR-RES = system: NCI/ADR-RES
SF-539 = system: SF-539
DU-145 = system: DU-145
OVCAR-4 = system: OVCAR-4
SR = system: SR
HCT-116 = system: HCT-116
SW-620 = system: SW-620
SNB-75 = system: SNB-75
SF-295 = system: SF-295
CCRF-CEM = system: CCRF-CEM
SK-MEL-28 = system: SK-MEL-28
SK-MEL-5 = system: SK-MEL-5
T47D = system: T47D
SK-MEL-2 = system: SK-MEL-2
SN12C = system: SN12C
HOP-92 = system: HOP-92
SK-OV-3 = system: SK-OV-3
NCI-H226 = system: NCI-H226

Row | Compound | GI50 (COLO 205) | GI50 (OVCAR-8) | GI50 (NCI/ADR-RES) | GI50 (SF-539) | GI50 (DU-145) | GI50 (OVCAR-4) | GI50 (SR) | GI50 (HCT-116) | GI50 (SW-620) | GI50 (SNB-75) | GI50 (SF-295) | GI50 (CCRF-CEM) | GI50 (SK-MEL-28) | GI50 (SK-MEL-5) | GI50 (T47D) | GI50 (SK-MEL-2) | GI50 (SN12C) | GI50 (HOP-92) | GI50 (SK-OV-3) | GI50 (NCI-H226)
1 | CC(C)C1(NC(=O)C2CC3c4cccc5[nH]cc(c45)CC3N(C)C2)OC2(O)C3CCCN3C(=O)C(Cc3ccccc3)N2C1=O (stereo not drawn) | 14.2 µM (inactive) | 42.4 µM (inactive) | 35.4 µM (inactive) | 15.4 µM (inactive) | 51.2 µM (inactive) | 53.5 µM (inactive) | 12.9 µM (inactive) | 16.9 µM (inactive) | 32.3 µM (inactive) | 6.71 µM (inactive) | 16.7 µM (inactive) | 5.9 µM (inactive) | 24.9 µM (inactive) | 27.7 µM (inactive) | 11.9 µM (inactive) | 29.2 µM (inactive) | > 100 µM (inactive) | 18.6 µM (inactive) | – | –
2 | Cc1ccc2nc(Cl)c(/C=N/N3C(=O)/C(=C/c4cccc([N+](=O)[O-])c4)N=C3c3ccccc3)cc2c1 | 38.7 µM (inactive) | 72.4 µM (inactive) | 36.5 µM (inactive) | > 100 µM (inactive) | > 100 µM (inactive) | 58.7 µM (inactive) | 19.8 µM (inactive) | 27.9 µM (inactive) | 75.5 µM (inactive) | 59.6 µM (inactive) | 40.9 µM (inactive) | 25.9 µM (inactive) | > 100 µM (inactive) | 43.5 µM (inactive) | 59.8 µM (inactive) | 22.2 µM (inactive) | 35.7 µM (inactive) | 46.3 µM (inactive) | 94.2 µM (inactive) | –
3 | CCC(C)C(=O)OCC(=O)c1ccc(-c2ccccc2)cc1 (stereo not drawn) | > 100 µM (inactive) | 79.3 µM (inactive) | 76.9 µM (inactive) | > 100 µM (inactive) | 52.2 µM (inactive) | – | 31.6 µM (inactive) | 68.7 µM (inactive) | 53.6 µM (inactive) | 80.7 µM (inactive) | 59.8 µM (inactive) | 35 µM (inactive) | 72.9 µM (inactive) | 24.7 µM (inactive) | 22.3 µM (inactive) | 41.6 µM (inactive) | > 100 µM (inactive) | > 100 µM (inactive) | > 100 µM (inactive) | –
4 | COc1ccc(C2Oc3c(cccc3-c3c(-c4ccc(O)cc4)oc4cc(O)cc(O)c4c3=O)C(=O)C2O)cc1O (stereo not drawn) | > 100 µM (inactive) | > 100 µM (inactive) | > 100 µM (inactive) | – | > 100 µM (inactive) | > 100 µM (inactive) | > 100 µM (inactive) | > 100 µM (inactive) | > 100 µM (inactive) | 60.4 µM (inactive) | > 100 µM (inactive) | > 100 µM (inactive) | > 100 µM (inactive) | > 100 µM (inactive) | > 100 µM (inactive) | – | > 100 µM (inactive) | > 100 µM (inactive) | > 100 µM (inactive) | > 100 µM (inactive)
5 | O=C(O)C[C@@H]1[C@@H](O)[C@@H](O)CN2C(=O)c3ccccc3[C@H]12 | > 100 µM (inactive) | > 100 µM (inactive) | > 100 µM (inactive) | > 100 µM (inactive) | > 100 µM (inactive) | > 100 µM (inactive) | > 100 µM (inactive) | > 100 µM (inactive) | > 100 µM (inactive) | > 100 µM (inactive) | > 100 µM (inactive) | – | > 100 µM (inactive) | > 100 µM (inactive) | > 100 µM (inactive) | > 100 µM (inactive) | > 100 µM (inactive) | – | > 100 µM (inactive) | > 100 µM (inactive)
6 | O=C1CC[C@@H](C(=O)N2CSC[C@H]2C(=O)O)N1 [PIDOTIMOD] ([pGlu]-[Thz]-OH) | – | > 100 µM (inactive) | > 100 µM (inactive) | > 100 µM (inactive) | > 100 µM (inactive) | – | > 100 µM (inactive) | – | > 100 µM (inactive) | > 100 µM (inactive) | > 100 µM (inactive) | > 100 µM (inactive) | > 100 µM (inactive) | > 100 µM (inactive) | > 100 µM (inactive) | > 100 µM (inactive) | > 100 µM (inactive) | – | > 100 µM (inactive) | > 100 µM (inactive)
7 | CN(C)c1nc2oc(-c3ccccc3)c(-c3ccccc3)c2c2nnnn12 | > 100 µM (inactive) | > 100 µM (inactive) | > 100 µM (inactive) | > 100 µM (inactive) | > 100 µM (inactive) | > 100 µM (inactive) | > 100 µM (inactive) | > 100 µM (inactive) | > 100 µM (inactive) | 41.1 µM (inactive) | > 100 µM (inactive) | > 100 µM (inactive) | > 100 µM (inactive) | > 100 µM (inactive) | > 100 µM (inactive) | – | > 100 µM (inactive) | > 100 µM (inactive) | > 100 µM (inactive) | > 100 µM (inactive)
8 | CSc1c(C(=O)Nc2ccc(Cl)cc2)c(N)n(N)c(=O)c1C#N | > 100 µM (inactive) | 55.2 µM (inactive) | 58.1 µM (inactive) | > 100 µM (inactive) | > 100 µM (inactive) | 68.5 µM (inactive) | > 100 µM (inactive) | 32.6 µM (inactive) | 95.5 µM (inactive) | > 100 µM (inactive) | – | 42.4 µM (inactive) | > 100 µM (inactive) | > 100 µM (inactive) | 31.3 µM (inactive) | > 100 µM (inactive) | > 100 µM (inactive) | – | > 100 µM (inactive) | 89.7 µM (inactive)
9 | COc1cccc(N2N=C3c4ccccc4-n4c(nc5ccccc54)C3C2N)c1 (stereo not drawn) | > 100 µM (inactive) | > 100 µM (inactive) | > 100 µM (inactive) | > 100 µM (inactive) | > 100 µM (inactive) | > 100 µM (inactive) | 86.5 µM (inactive) | > 100 µM (inactive) | > 100 µM (inactive) | > 100 µM (inactive) | > 100 µM (inactive) | – | > 100 µM (inactive) | 20.7 µM (inactive) | > 100 µM (inactive) | > 100 µM (inactive) | > 100 µM (inactive) | > 100 µM (inactive) | – | –
10 | COc1ccc2c(c1)/C(=C\c1c(Cl)nc3sc(C)cn13)C(=O)N2 | 1.6 µM (inactive) | 4.06 µM (inactive) | 3.56 µM (inactive) | 2.01 µM (inactive) | 5.74 µM (inactive) | – | 0.7 µM (active) | 3.1 µM (inactive) | 0.826 µM (active) | 4.98 µM (inactive) | 1.74 µM (inactive) | 1.19 µM (inactive) | 8.17 µM (inactive) | 2.16 µM (inactive) | 3.99 µM (inactive) | 2.87 µM (inactive) | 7.05 µM (inactive) | 10.6 µM (inactive) | 4.03 µM (inactive) | –
11 | CO[C@]1(c2ccc([N+](=O)[O-])cc2)Oc2ccccc2C(=O)[C@@]1(Nc1ccc(C=O)cc1)OC | > 10 µM (inactive) | > 10 µM (inactive) | > 10 µM (inactive) | > 10 µM (inactive) | > 10 µM (inactive) | > 10 µM (inactive) | > 10 µM (inactive) | > 10 µM (inactive) | > 10 µM (inactive) | > 10 µM (inactive) | > 10 µM (inactive) | > 10 µM (inactive) | > 10 µM (inactive) | > 10 µM (inactive) | > 10 µM (inactive) | > 10 µM (inactive) | > 10 µM (inactive) | – | > 10 µM (inactive) | > 10 µM (inactive)

Source: ChEMBL document CHEMBL1201862, “PubChem BioAssay data set” (2004)
